Reference: PubChem BioAssay (NCI)
Where “and” joins values, the source holds several entries; their conditions need not be identical. Identical values can stand only once.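 Compound exposure: 48 hours, 5 concentrations, 96-well plates. GI50 = concentration required for 50% inhibition of growth. At the TGI there is no net growth.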

Legend:
Experiment in all cases: inhibition of tumour cell growth, NCI panel, 48 h
UACC-62 melanoma = system: UACC-62 melanoma
SK-MEL-2 melanoma = system: SK-MEL-2 melanoma
A549 NSCLC = system: A549 NSCLC
SW-620 colon = system: SW-620 colon
SN12C renal = system: SN12C renal
OVCAR-3 ovarian = system: OVCAR-3 ovarian
EKVX NSCLC = system: EKVX NSCLC
COLO 205 colon = system: COLO 205 colon
ACHN renal = system: ACHN renal
UO-31 renal = system: UO-31 renal
NCI-H23 lung = system: NCI-H23 lung
U251 CNS = system: U251 CNS
786-0 renal = system: 786-0 renal
SK-OV-3 ovarian = system: SK-OV-3 ovarian
HT29 colon = system: HT29 colon
OVCAR-5 ovarian = system: OVCAR-5 ovarian
SNB-19 CNS = system: SNB-19 CNS
NCI-H522 lung = system: NCI-H522 lung
SK-MEL-5 melanoma = system: SK-MEL-5 melanoma
UACC-257 melanoma = system: UACC-257 melanoma
M19-MEL melanoma = system: M19-MEL melanoma
MOLT-4 leukemia = system: MOLT-4 leukemia
SNB-75 CNS = system: SNB-75 CNS
SF-539 CNS = system: SF-539 CNS
LOX IMVI melanoma = system: LOX IMVI melanoma
RPMI-8226 leukemia = system: RPMI-8226 leukemia
CCRF-CEM leukemia = system: CCRF-CEM leukemia
DMS 114 small cell lung = system: DMS 114 small cell lung
KM20L2 colon = system: KM20L2 colon
HCT-116 colon = system: HCT-116 colon
MALME-3M melanoma = system: MALME-3M melanoma
HL-60(TB) leukemia = system: HL-60(TB) leukemia
LXFL 529 NSCLC = system: LXFL 529 NSCLC
KM12 colon = system: KM12 colon
SNB-78 CNS = system: SNB-78 CNS
A498 renal = system: A498 renal
NCI-H460 lung = system: NCI-H460 lung
SF-268 CNS = system: SF-268 CNS
TK-10 renal = system: TK-10 renal
OVCAR-8 ovarian = system: OVCAR-8 ovarian
M14 melanoma = system: M14 melanoma
IGROV1 ovarian = system: IGROV1 ovarian
HCT-15 colon = system: HCT-15 colon
SK-MEL-28 melanoma = system: SK-MEL-28 melanoma
DLD-1 colon = system: DLD-1 colon
DMS 273 small cell lung = system: DMS 273 small cell lung
OVCAR-4 ovarian = system: OVCAR-4 ovarian
HOP-92 NSCLC = system: HOP-92 NSCLC
K-562 leukemia = system: K-562 leukemia
CAKI-1 renal = system: CAKI-1 renal
HCC-2998 colon = system: HCC-2998 colon
XF 498 CNS = system: XF 498 CNS
HOP-62 NSCLC = system: HOP-62 NSCLC
SF-295 CNS = system: SF-295 CNS
NCI-H226 lung = system: NCI-H226 lung
SR leukemia = system: SR leukemia
RXF 393 renal = system: RXF 393 renal

[Co+2].[O-]c1ccccc1C=NCc1ccccc1.[O-]c1ccccc1C=NCc1ccccc1
GI50 (UACC-62 melanoma): 21.1 µM | TGI (UACC-62 melanoma): > 100 µM | GI50 (SK-MEL-2 melanoma): 55.7 µM | TGI (SK-MEL-2 melanoma): > 100 µM | GI50 (A549 NSCLC): > 100 µM | TGI (A549 NSCLC): > 100 µM | GI50 (SW-620 colon): 41.4 µM | TGI (SW-620 colon): > 100 µM | GI50 (SN12C renal): 80.1 µM | TGI (SN12C renal): > 100 µM | GI50 (OVCAR-3 ovarian): 8.06 µM | TGI (OVCAR-3 ovarian): > 100 µM | GI50 (EKVX NSCLC): 56.6 µM | TGI (EKVX NSCLC): > 100 µM | GI50 (COLO 205 colon): 91.5 µM | TGI (COLO 205 colon): > 100 µM | GI50 (ACHN renal): 31.8 µM | TGI (ACHN renal): > 100 µM | GI50 (UO-31 renal): 17.1 µM | TGI (UO-31 renal): 82.9 µM | GI50 (NCI-H23 lung): 51.1 µM | TGI (NCI-H23 lung): > 100 µM | GI50 (U251 CNS): 47.2 µM | TGI (U251 CNS): > 100 µM | GI50 (786-0 renal): 34.7 µM | TGI (786-0 renal): > 100 µM | GI50 (SK-OV-3 ovarian): > 100 µM | TGI (SK-OV-3 ovarian): > 100 µM | GI50 (HT29 colon): 82.6 µM | TGI (HT29 colon): > 100 µM | GI50 (OVCAR-5 ovarian): 62.7 µM | TGI (OVCAR-5 ovarian): > 100 µM | GI50 (SNB-19 CNS): 59.4 µM | TGI (SNB-19 CNS): > 100 µM | GI50 (NCI-H522 lung): 45.7 µM | TGI (NCI-H522 lung): > 100 µM | GI50 (SK-MEL-5 melanoma): 33.7 µM | TGI (SK-MEL-5 melanoma): > 100 µM | GI50 (UACC-257 melanoma): 35.7 µM | TGI (UACC-257 melanoma): > 100 µM | GI50 (M19-MEL melanoma): 39.8 µM | TGI (M19-MEL melanoma): > 100 µM | GI50 (MOLT-4 leukemia): 6.37 µM | TGI (MOLT-4 leukemia): > 100 µM | GI50 (SNB-75 CNS): 21.3 µM | TGI (SNB-75 CNS): 69.6 µM | GI50 (SF-539 CNS): 16.3 µM | TGI (SF-539 CNS): > 100 µM | GI50 (LOX IMVI melanoma): 77.2 µM | TGI (LOX IMVI melanoma): > 100 µM | GI50 (RPMI-8226 leukemia): 31.6 µM | TGI (RPMI-8226 leukemia): > 100 µM | GI50 (CCRF-CEM leukemia): 6.92 µM | TGI (CCRF-CEM leukemia): > 100 µM | GI50 (DMS 114 small cell lung): 28.7 µM | TGI (DMS 114 small cell lung): > 100 µM | GI50 (KM20L2 colon): > 100 µM | TGI (KM20L2 colon): > 100 µM | GI50 (HCT-116 colon): 10.6 µM | TGI (HCT-116 colon): > 100 µM | GI50 (MALME-3M melanoma): 21.1 µM | TGI (MALME-3M melanoma): > 100 µM | GI50 (HL-60(TB) leukemia): 7.85 µM | TGI (HL-60(TB) leukemia): 82.1 µM | GI50 (LXFL 529 NSCLC): 17.2 µM | TGI (LXFL 529 NSCLC): > 100 µM | GI50 (KM12 colon): 67.8 µM | TGI (KM12 colon): > 100 µM | GI50 (SNB-78 CNS): > 100 µM | TGI (SNB-78 CNS): > 100 µM | GI50 (A498 renal): > 100 µM | TGI (A498 renal): > 100 µM | GI50 (NCI-H460 lung): > 100 µM | TGI (NCI-H460 lung): > 100 µM | GI50 (SF-268 CNS): 11.6 µM | TGI (SF-268 CNS): > 100 µM | GI50 (TK-10 renal): > 100 µM | TGI (TK-10 renal): > 100 µM | GI50 (OVCAR-8 ovarian): 99.2 µM | TGI (OVCAR-8 ovarian): > 100 µM | GI50 (M14 melanoma): 28.3 µM | TGI (M14 melanoma): > 100 µM | GI50 (IGROV1 ovarian): 64.6 µM | TGI (IGROV1 ovarian): > 100 µM | GI50 (HCT-15 colon): 26.3 µM | TGI (HCT-15 colon): > 100 µM | GI50 (SK-MEL-28 melanoma): 6.9 µM | TGI (SK-MEL-28 melanoma): > 100 µM | GI50 (DLD-1 colon): 38.8 µM | TGI (DLD-1 colon): > 100 µM | GI50 (DMS 273 small cell lung): 95.8 µM | TGI (DMS 273 small cell lung): > 100 µM | GI50 (OVCAR-4 ovarian): 53.8 µM | TGI (OVCAR-4 ovarian): > 100 µM | GI50 (HOP-92 NSCLC): 11.1 µM | TGI (HOP-92 NSCLC): 92.4 µM | GI50 (K-562 leukemia): 32.8 µM | TGI (K-562 leukemia): > 100 µM

CCCCCC(=O)N[C@H]1CCc2cc(OC)c(OC)c(OC)c2-c2ccc(SC)c(=O)cc21
TGI (UACC-62 melanoma): 29.3 µM | TGI (A549 NSCLC): > 100 µM | TGI (SW-620 colon): > 100 µM | TGI (CAKI-1 renal): > 100 µM | TGI (SN12C renal): 19 µM | TGI (OVCAR-3 ovarian): 0.0354 µM | TGI (EKVX NSCLC): > 100 µM | TGI (COLO 205 colon): 0.0285 µM | TGI (ACHN renal): 36 µM | TGI (HCC-2998 colon): 0.0549 µM | TGI (786-0 renal): 11.6 µM | TGI (SK-OV-3 ovarian): 0.0811 µM | TGI (HT29 colon): 0.0755 µM and 0.131 µM | TGI (OVCAR-5 ovarian): > 100 µM | TGI (SK-MEL-5 melanoma): 0.0484 µM | TGI (UACC-257 melanoma): 33.4 µM | TGI (M19-MEL melanoma): 50.7 µM | TGI (MOLT-4 leukemia): > 100 µM | TGI (XF 498 CNS): 6.04 µM | TGI (SF-539 CNS): 0.0374 µM | TGI (CCRF-CEM leukemia): 34.8 µM | TGI (KM20L2 colon): 0.0354 µM | TGI (HOP-62 NSCLC): 49.7 µM | TGI (HCT-116 colon): 0.0913 µM and 0.0136 µM | TGI (LXFL 529 NSCLC): 17.3 µM | TGI (SNB-78 CNS): > 100 µM | TGI (A498 renal): 0.0449 µM | TGI (SF-268 CNS): 24.1 µM | TGI (TK-10 renal): 32.9 µM | TGI (HCT-15 colon): 0.0646 µM | GI50 (SK-MEL-28 melanoma): 25.1 µM | TGI (SK-MEL-28 melanoma): > 100 µM | TGI (DLD-1 colon): > 100 µM | TGI (OVCAR-4 ovarian): > 100 µM | TGI (HOP-92 NSCLC): 1.17 µM | TGI (K-562 leukemia): 11.2 µM

CN(C)C(=O)Nc1c([N+](=O)[O-])cc(C(F)(F)F)cc1[N+](=O)[O-]
TGI (UACC-62 melanoma): > 100 µM | TGI (SK-MEL-2 melanoma): > 100 µM | TGI (A549 NSCLC): > 100 µM | TGI (SW-620 colon): > 100 µM | TGI (CAKI-1 renal): > 100 µM | TGI (SN12C renal): > 100 µM | TGI (OVCAR-3 ovarian): 53.7 µM | TGI (EKVX NSCLC): > 100 µM | TGI (SF-295 CNS): > 100 µM | TGI (COLO 205 colon): 69.3 µM | TGI (ACHN renal): > 100 µM | TGI (UO-31 renal): > 100 µM | TGI (NCI-H23 lung): > 100 µM | TGI (U251 CNS): > 100 µM | TGI (786-0 renal): > 100 µM | TGI (SK-OV-3 ovarian): > 100 µM | TGI (HT29 colon): > 100 µM | TGI (OVCAR-5 ovarian): > 100 µM | TGI (SNB-19 CNS): > 100 µM | TGI (NCI-H522 lung): 77.5 µM | TGI (SK-MEL-5 melanoma): > 100 µM | TGI (UACC-257 melanoma): 84.3 µM | TGI (MOLT-4 leukemia): > 100 µM | TGI (NCI-H226 lung): > 100 µM | TGI (XF 498 CNS): 80.8 µM | TGI (SNB-75 CNS): > 100 µM | TGI (SF-539 CNS): > 100 µM | TGI (LOX IMVI melanoma): > 100 µM | TGI (RPMI-8226 leukemia): > 100 µM | TGI (CCRF-CEM leukemia): > 100 µM | TGI (SR leukemia): > 100 µM | TGI (KM20L2 colon): 59.3 µM | TGI (HOP-62 NSCLC): > 100 µM | TGI (HCT-116 colon): > 100 µM | TGI (HL-60(TB) leukemia): 48 µM | TGI (LXFL 529 NSCLC): > 100 µM | TGI (KM12 colon): > 100 µM | TGI (RXF 393 renal): > 100 µM | TGI (SNB-78 CNS): > 100 µM | TGI (A498 renal): > 100 µM | TGI (NCI-H460 lung): > 100 µM | TGI (SF-268 CNS): > 100 µM | TGI (TK-10 renal): > 100 µM | TGI (OVCAR-8 ovarian): > 100 µM | TGI (M14 melanoma): > 100 µM | TGI (IGROV1 ovarian): > 100 µM | TGI (HCT-15 colon): > 100 µM | TGI (SK-MEL-28 melanoma): > 100 µM | TGI (DMS 273 small cell lung): > 100 µM | TGI (OVCAR-4 ovarian): > 100 µM | TGI (HOP-92 NSCLC): > 100 µM | TGI (K-562 leukemia): > 100 µM
